The source of these data is patent US20250171495A1, “MUTLI-TARGETED SERINE PROTEASE INHIBITORS FOR TREATMENT OF CANCER AND VIRAL INFECTION” (Washington University, priority 2023, published 2025).

Assay type in all cases: biochemical
One assay has as its target T1, matriptase (Homo sapiens, UniProt Q9Y5Y6).
T1 construct: purchased R&D Systems 3946-SEB-010
T1 sequence (Q9Y5Y6 615-855 limits assumed): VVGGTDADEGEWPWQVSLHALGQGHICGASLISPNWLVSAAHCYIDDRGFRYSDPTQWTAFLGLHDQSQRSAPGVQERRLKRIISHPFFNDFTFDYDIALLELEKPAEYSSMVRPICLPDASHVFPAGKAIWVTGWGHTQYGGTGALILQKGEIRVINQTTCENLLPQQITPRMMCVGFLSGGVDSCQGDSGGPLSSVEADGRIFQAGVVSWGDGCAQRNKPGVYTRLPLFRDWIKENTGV
Put plainly: Fluorogenic kinetic enzyme inhibitor assay, matriptase.

In a further assay the target is T2, hepsin (Homo sapiens, UniProt P05981).
T2 construct: purchased R&D Systems 4776-SE-010
Put plainly: Fluorogenic kinetic enzyme inhibitor assay, hepsin. Conditions: read-out: Hepsin IC50.

In the next assay the target is T3, HGFA (Homo sapiens, UniProt Q04756).
T3 construct: purchased R&D Systems 1514-SE-010
T3 sequence (Q04756 408-655 limits assumed): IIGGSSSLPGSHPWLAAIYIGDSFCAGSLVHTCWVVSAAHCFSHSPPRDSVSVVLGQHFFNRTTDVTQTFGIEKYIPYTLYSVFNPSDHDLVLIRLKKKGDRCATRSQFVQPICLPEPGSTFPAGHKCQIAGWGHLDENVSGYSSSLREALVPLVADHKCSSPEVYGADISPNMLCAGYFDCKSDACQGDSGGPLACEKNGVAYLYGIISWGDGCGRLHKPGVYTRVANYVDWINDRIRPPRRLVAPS
T3 sequence (Q04756 373-407 partner limits assumed): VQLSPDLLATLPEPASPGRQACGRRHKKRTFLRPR
The assay can be described thus: Fluorogenic kinetic enzyme inhibitor assay, HGFA. The conditions noted are these: read-out: HGFA IC50.

In a further assay the target is Thrombin (Homo sapiens, UniProt P00734). Put plainly: Fluorogenic assay, thrombin.
Another assay has as its target T4, Factor Xa (Homo sapiens, UniProt P00742).
T4 construct: TMPRSS2; Matriptase; Hepsin; HGFA; Thrombin; Factor Xa
Put plainly: Fluorogenic assay, Factor Xa. The conditions noted are these: read-out: Factor Xa IC50.

pIC50: −log10 of the molar value. Read-outs that look alike come from different tables or passages of the source. Numbered stars: 1 amine (or outer) side, 2 acyl side, 3 side chain; on linkers, the order of the positions; unused ones are H or OH. Square brackets hold non-standard residues; d marks the D form. Peptide text beside a SMILES is read from it. X1 = N=C(N)NCCC[C@H](N[*:1])C(=O)c1nc2ccc(C(=O)[*:2])cc2s1; Phe(4-NO2) = N[C@@H](Cc1ccc([N+](=O)[O-])cc1)C(=O)O

T2 sequence (P05981 163-417 limits assumed): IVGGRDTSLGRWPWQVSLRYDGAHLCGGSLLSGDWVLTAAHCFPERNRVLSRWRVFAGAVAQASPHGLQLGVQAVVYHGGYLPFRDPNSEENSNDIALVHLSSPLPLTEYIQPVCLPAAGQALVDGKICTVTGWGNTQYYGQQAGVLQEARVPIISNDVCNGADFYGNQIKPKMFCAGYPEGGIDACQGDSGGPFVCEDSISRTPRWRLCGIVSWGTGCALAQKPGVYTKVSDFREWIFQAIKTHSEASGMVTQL
T2 sequence (P05981 1-162 partner limits assumed): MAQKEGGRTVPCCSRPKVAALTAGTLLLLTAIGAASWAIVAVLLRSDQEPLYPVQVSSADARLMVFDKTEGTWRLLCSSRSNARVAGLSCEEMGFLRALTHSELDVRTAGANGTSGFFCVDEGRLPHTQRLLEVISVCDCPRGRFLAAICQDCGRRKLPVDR
T4 sequence (P00742 235-488 limits assumed): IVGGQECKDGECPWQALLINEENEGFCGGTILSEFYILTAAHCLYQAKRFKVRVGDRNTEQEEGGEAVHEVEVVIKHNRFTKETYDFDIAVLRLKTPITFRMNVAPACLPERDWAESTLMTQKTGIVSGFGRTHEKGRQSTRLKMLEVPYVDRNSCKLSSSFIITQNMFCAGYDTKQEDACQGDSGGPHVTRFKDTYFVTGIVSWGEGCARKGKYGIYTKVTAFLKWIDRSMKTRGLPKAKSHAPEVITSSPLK
T4 sequence (P00742 41-179 partner limits assumed): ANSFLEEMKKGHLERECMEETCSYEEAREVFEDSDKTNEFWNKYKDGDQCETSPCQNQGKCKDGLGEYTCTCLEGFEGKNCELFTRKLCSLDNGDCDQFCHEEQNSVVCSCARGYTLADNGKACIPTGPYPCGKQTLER

Consider `CC(=O)N[C@H](Cc1c[nH]c2ccccc12)C(=O)N[C@@H](CCCCNC(=N)N)C(=O)N[C@@H](CCC(C)C)C(=O)N[C@@H](CCCNC(=N)N)C(=O)c1nc2ccccc2s1` [JH1140-2, N-[(S)-1-[(1,3-benzothiazol-2-yl)carbonyl]-4-guanidinobutyl](S)-2-[(S)-1-[(R)-2-acetylamino-3-(3-indolyl)propionylamino]-5-guanidinopentylcarbonylamino]-5-methylhexanamide], for which the pIC50 (commonly the negative decadic logarithm of the IC50, by convention in mol/L) at matriptase was 9.34; on hepsin, 9.35; on HGFA it was 8.32; on Thrombin, below 4.70; on Factor Xa, 8.04.
With `CC(=O)N[C@@H](CCCCNC(=N)N)C(=O)N[C@@H](CCC(C)C)C(=O)N[C@@H](CCCNC(=N)N)C(=O)c1nc2ccccc2s1` [JH1141-2, N-[(S)-1-[(1,3-benzothiazol-2-yl)carbonyl]-4-guanidinobutyl](S)-2-[(S)-1-acetylamino-5-guanidinopentylcarbonylamino]-5-methylhexanamide], the pIC50 at matriptase (read-out: Matriptase IC50) is 8.97; at hepsin, 8.94; on HGFA, 7.98; against Thrombin, below 4.70; on Factor Xa, 6.92.
On to `CC(=O)N[C@@H](Cc1cncn1COCc1ccccc1)C(=O)N[C@@H](CCCCNC(=N)N)C(=O)N[C@@H](CCC(C)C)C(=O)N[C@@H](CCCNC(=N)N)C(=O)c1nc2ccccc2s1` [JH1143-2, N-[(S)-1-[(1,3-benzothiazol-2-yl)carbonyl]-4-guanidinobutyl](S)-2-[(S)-1-[(S)-2-acetylamino-3-{1-[(benzyloxy)methyl]-5-imidazolyl}propionylamino]-5-guanidinopentylcarbonylamino]-5-methylhexanamide], for which the pIC50 is 9.06 on matriptase; 9.14 on hepsin; 7.36 at HGFA; 5.79 against Thrombin; 6.75 on Factor Xa.
Take `CC(=O)N[C@@H](CO)C(=O)NCc1cccc(CC(=O)N[C@@H](CC(C)C)C(=O)N[C@@H](CCCNC(=N)N)C(=O)c2nc3ccccc3s2)c1` [MM1132-2, N-[(S)-1-[(1,3-benzothiazol-2-yl)carbonyl]-4-guanidinobutyl](S)-2-{[(m-{[(S)-2-acetylamino-3-hydroxypropionylamino]methyl}phenyl)methyl]carbonylamino}-4-methylvaleramide]: the pIC50 at matriptase (read-out: Matriptase IC50) was 7.51; on hepsin it was 9.49; at HGFA, 6.68; against Thrombin, 5.03; at Factor Xa, 5.72.
Take `CC(=O)N[C@@H](CO)C(=O)N[C@@H](Cc1ccc([N+](=O)[O-])cc1)C(=O)N[C@@H](CC(C)C)C(=O)N[C@@H](CCCNC(=N)N)C(=O)c1nc2ccc(C(=O)N[C@H](C(N)=O)C(C)C)cc2s1` [MM1180, N-[(S)-1-carbamoyl-2-methylpropyl]-2-[(S)-2-[(S)-2-[(S)-2-[(S)-2-acetylamino-3-hydroxypropionylamino]-3-(p-nitrophenyl)propionylamino]-4-methylvalerylamino]-5-guanidinovaleryl]-1,3-benzothiazole-6-carboxamide] (Ac-S[Phe(4-NO2)]L[X1]V-NH2): the pIC50 is 6.88 against matriptase; 8.51 on hepsin; 6.64 at HGFA; 6.87 at Thrombin; 7.19 on Factor Xa.
Turning to `CC(=O)N[C@H](Cc1c[nH]c2ccccc12)C(=O)N[C@@H](Cc1ccccc1)C(=O)N[C@@H](CCCNC(=N)N)C(=O)c1nc2ccc(C(=O)O)cc2s1` [PK-1-93, 2-[(S)-2-[(S)-2-[(R)-2-acetylamino-3-(3-indolyl)propionylamino]-3-phenylpropionylamino]-5-guanidinovaleryl]-1,3-benzothiazole-6-carboxylic acid], the pIC50 was 6.87 on matriptase (read-out: Matriptase IC50); 8.70 on hepsin; 7.02 at HGFA; 4.70 on Thrombin; 7.52 on Factor Xa.
